{"source": "the supplement of paper PMC10307832", "assay_in_all_cases": "relative viability (nuclei count vs DMSO), 5 days (fraction); higher = more cells survive", "key": {"201T": {"tested_on": "201T", "how_it_was_run": "(§1)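 Nuclei were stained with Hoechst during a one-step fixation (final 0.05% Triton X-100, 1% formaldehyde, 1 ug/ml Hoechst) carried out 5 days after dosing, then counted on 4× images. The cells, lung cancer lines in 1536-well plates, had been dosed by pin tool the day after seeding with one drug alone or a fixed anchor-drug dose plus five library-drug doses (not always all listed) in √10 steps. Relative viability is the nuclei count in treated wells divided by that in vehicle wells, and each value is the median of duplicate plates.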"}, "BEN": {"tested_on": "BEN", "how_it_was_run": "as §1"}, "CAL-12T": {"tested_on": "CAL-12T", "how_it_was_run": "as §1"}, "HCC-78": {"tested_on": "HCC-78", "how_it_was_run": "as §1"}, "HOP-62": {"tested_on": "HOP-62", "how_it_was_run": "as §1"}, "LCLC-97TM1": {"tested_on": "LCLC-97TM1", "how_it_was_run": "as §1"}, "LOU-NH91": {"tested_on": "LOU-NH91", "how_it_was_run": "as §1"}, "NCI-H1355": {"tested_on": "NCI-H1355", "how_it_was_run": "as §1"}, "NCI-H1395": {"tested_on": "NCI-H1395", "how_it_was_run": "as §1"}, "NCI-H1563": {"tested_on": "NCI-H1563", "how_it_was_run": "as §1"}, "NCI-H1651": {"tested_on": "NCI-H1651", "how_it_was_run": "as §1"}, "NCI-H1793": {"tested_on": "NCI-H1793", "how_it_was_run": "as §1"}, "NCI-H1915": {"tested_on": "NCI-H1915", "how_it_was_run": "as §1"}, "NCI-H1944": {"tested_on": "NCI-H1944", "how_it_was_run": "as §1"}, "NCI-H2126": {"tested_on": "NCI-H2126", "how_it_was_run": "as §1"}, "NCI-H2347": {"tested_on": "NCI-H2347", "how_it_was_run": "as §1"}, "NCI-H3122": {"tested_on": "NCI-H3122", "how_it_was_run": "as §1"}, "NCI-H322M": {"tested_on": "NCI-H322M", "how_it_was_run": "as §1"}, "NCI-H441": {"tested_on": "NCI-H441", "how_it_was_run": "as §1"}, "NCI-H650": {"tested_on": "NCI-H650", "how_it_was_run": "as §1"}, "NCI-H838": {"tested_on": "NCI-H838", "how_it_was_run": "as §1"}, "SK-LU-1": {"tested_on": "SK-LU-1", "how_it_was_run": "as §1"}, "SW 1573": {"tested_on": "SW 1573", "how_it_was_run": "as §1"}}, "data": [{"compound": "CN1CCN(CCOc2cc(OC3CCOCC3)c3c(Nc4c(Cl)ccc5c4OCO5)ncnc3c2)CC1", "note": "[Saracatinib] + Cc1nc(NC(=O)N2CCC[C@H]2C(N)=O)sc1-c1ccnc(C(C)(C)C(F)(F)F)c1 [Alpelisib] (partner 2 µM)", "values": [{"measurement": "relative viability", "setting": "201T; first compound 0.02 µM", "value": 1.09}, {"measurement": "relative viability", "setting": "201T; first compound 0.2 µM", "value": 0.865}, {"measurement": "relative viability", "setting": "201T; first compound 0.6325 µM", "value": 0.856}, {"measurement": "relative viability", "setting": "201T; first compound 2 µM", "value": 0.772}, {"measurement": "relative viability", "setting": "BEN; first compound 0.02 µM", "value": 1.08}, {"measurement": "relative viability", "setting": "BEN; first compound 0.2 µM", "value": 1.03}, {"measurement": "relative viability", "setting": "BEN; first compound 0.6325 µM", "value": 1.07}, {"measurement": "relative viability", "setting": "BEN; first compound 2 µM", "value": 0.85}, {"measurement": "relative viability", "setting": "CAL-12T; first compound 0.02 µM", "value": 1.28}, {"measurement": "relative viability", "setting": "CAL-12T; first compound 0.2 µM", "value": 1.06}, {"measurement": "relative viability", "setting": "CAL-12T; first compound 0.6325 µM", "value": 1.33}, {"measurement": "relative viability", "setting": "CAL-12T; first compound 2 µM", "value": 0.927}, {"measurement": "relative viability", "setting": "HCC-78; first compound 0.02 µM", "value": 0.29}, {"measurement": "relative viability", "setting": "HCC-78; first compound 0.2 µM", "value": 0.328}, {"measurement": "relative viability", "setting": "HCC-78; first compound 0.6325 µM", "value": 0.479}, {"measurement": "relative viability", "setting": "HCC-78; first compound 2 µM", "value": 0.323}, {"measurement": "relative viability", "setting": "HOP-62; first compound 0.02 µM", "value": 0.989}, {"measurement": "relative viability", "setting": "HOP-62; first compound 0.2 µM", "value": 0.782}, {"measurement": "relative viability", "setting": "HOP-62; first compound 0.6325 µM", "value": 0.801}, {"measurement": "relative viability", "setting": "HOP-62; first compound 2 µM", "value": 0.749}, {"measurement": "relative viability", "setting": "LCLC-97TM1; first compound 0.02 µM", "value": 0.198}, {"measurement": "relative viability", "setting": "LCLC-97TM1; first compound 0.2 µM", "value": 0.195}, {"measurement": "relative viability", "setting": "LCLC-97TM1; first compound 0.6325 µM", "value": 0.357}, {"measurement": "relative viability", "setting": "LCLC-97TM1; first compound 2 µM", "value": 0.282}, {"measurement": "relative viability", "setting": "LOU-NH91; first compound 0.02 µM", "value": 0.683}, {"measurement": "relative viability", "setting": "LOU-NH91; first compound 0.2 µM", "value": 0.5}, {"measurement": "relative viability", "setting": "LOU-NH91; first compound 0.6325 µM", "value": 0.554}, {"measurement": "relative viability", "setting": "LOU-NH91; first compound 2 µM", "value": 0.449}, {"measurement": "relative viability", "setting": "NCI-H1355; first compound 0.02 µM", "value": 0.848}, {"measurement": "relative viability", "setting": "NCI-H1355; first compound 0.2 µM", "value": 0.833}, {"measurement": "relative viability", "setting": "NCI-H1355; first compound 0.6325 µM", "value": 0.861}, {"measurement": "relative viability", "setting": "NCI-H1355; first compound 2 µM", "value": 0.794}, {"measurement": "relative viability", "setting": "NCI-H1395; first compound 0.02 µM", "value": 1.6}, {"measurement": "relative viability", "setting": "NCI-H1395; first compound 0.2 µM", "value": 1.06}, {"measurement": "relative viability", "setting": "NCI-H1395; first compound 0.6325 µM", "value": 0.956}, {"measurement": "relative viability", "setting": "NCI-H1395; first compound 2 µM", "value": 0.851}, {"measurement": "relative viability", "setting": "NCI-H1563; first compound 0.02 µM", "value": 0.992}, {"measurement": "relative viability", "setting": "NCI-H1563; first compound 0.2 µM", "value": 0.882}, {"measurement": "relative viability", "setting": "NCI-H1563; first compound 0.6325 µM", "value": 0.725}, {"measurement": "relative viability", "setting": "NCI-H1563; first compound 2 µM", "value": 0.693}, {"measurement": "relative viability", "setting": "NCI-H1651; first compound 0.02 µM", "value": 1.02}, {"measurement": "relative viability", "setting": "NCI-H1651; first compound 0.2 µM", "value": 0.729}, {"measurement": "relative viability", "setting": "NCI-H1651; first compound 0.6325 µM", "value": 0.913}, {"measurement": "relative viability", "setting": "NCI-H1651; first compound 2 µM", "value": 0.804}, {"measurement": "relative viability", "setting": "NCI-H1793; first compound 0.02 µM", "value": 0.722}, {"measurement": "relative viability", "setting": "NCI-H1793; first compound 0.2 µM", "value": 0.75}, {"measurement": "relative viability", "setting": "NCI-H1793; first compound 0.6325 µM", "value": 0.793}, {"measurement": "relative viability", "setting": "NCI-H1793; first compound 2 µM", "value": 0.74}, {"measurement": "relative viability", "setting": "NCI-H1915; first compound 0.02 µM", "value": 1.04}, {"measurement": "relative viability", "setting": "NCI-H1915; first compound 0.2 µM", "value": 0.552}, {"measurement": "relative viability", "setting": "NCI-H1915; first compound 0.6325 µM", "value": 1.07}, {"measurement": "relative viability", "setting": "NCI-H1915; first compound 2 µM", "value": 1.01}, {"measurement": "relative viability", "setting": "NCI-H1944; first compound 0.02 µM", "value": 0.847}, {"measurement": "relative viability", "setting": "NCI-H1944; first compound 0.6325 µM", "value": 0.808}, {"measurement": "relative viability", "setting": "NCI-H1944; first compound 2 µM", "value": 0.524}, {"measurement": "relative viability", "setting": "NCI-H2126; first compound 0.02 µM", "value": 0.751}, {"measurement": "relative viability", "setting": "NCI-H2126; first compound 0.2 µM", "value": 0.654}, {"measurement": "relative viability", "setting": "NCI-H2126; first compound 0.6325 µM", "value": 0.749}, {"measurement": "relative viability", "setting": "NCI-H2126; first compound 2 µM", "value": 0.622}, {"measurement": "relative viability", "setting": "NCI-H2347; first compound 0.02 µM", "value": 1.03}, {"measurement": "relative viability", "setting": "NCI-H2347; first compound 0.2 µM", "value": 0.835}, {"measurement": "relative viability", "setting": "NCI-H2347; first compound 0.6325 µM", "value": 1.12}, {"measurement": "relative viability", "setting": "NCI-H2347; first compound 2 µM", "value": 0.902}, {"measurement": "relative viability", "setting": "NCI-H3122; first compound 0.02 µM", "value": 0.822}, {"measurement": "relative viability", "setting": "NCI-H3122; first compound 0.6325 µM", "value": 0.664}, {"measurement": "relative viability", "setting": "NCI-H3122; first compound 2 µM", "value": 0.46}, {"measurement": "relative viability", "setting": "NCI-H322M; first compound 0.02 µM", "value": 0.761}, {"measurement": "relative viability", "setting": "NCI-H322M; first compound 0.2 µM", "value": 0.876}, {"measurement": "relative viability", "setting": "NCI-H322M; first compound 0.6325 µM", "value": 0.822}, {"measurement": "relative viability", "setting": "NCI-H322M; first compound 2 µM", "value": 0.639}, {"measurement": "relative viability", "setting": "NCI-H441; first compound 0.02 µM", "value": 0.715}, {"measurement": "relative viability", "setting": "NCI-H441; first compound 0.2 µM", "value": 0.544}, {"measurement": "relative viability", "setting": "NCI-H441; first compound 0.6325 µM", "value": 1.03}, {"measurement": "relative viability", "setting": "NCI-H441; first compound 2 µM", "value": 0.772}, {"measurement": "relative viability", "setting": "NCI-H650; first compound 0.02 µM", "value": 1.14}, {"measurement": "relative viability", "setting": "NCI-H650; first compound 0.2 µM", "value": 0.814}, {"measurement": "relative viability", "setting": "NCI-H650; first compound 0.6325 µM", "value": 1.21}, {"measurement": "relative viability", "setting": "NCI-H650; first compound 2 µM", "value": 1.13}, {"measurement": "relative viability", "setting": "NCI-H838; first compound 0.02 µM", "value": 0.993}, {"measurement": "relative viability", "setting": "NCI-H838; first compound 0.2 µM", "value": 0.929}, {"measurement": "relative viability", "setting": "NCI-H838; first compound 0.6325 µM", "value": 0.771}, {"measurement": "relative viability", "setting": "NCI-H838; first compound 2 µM", "value": 0.803}, {"measurement": "relative viability", "setting": "SK-LU-1; first compound 0.02 µM", "value": 0.634}, {"measurement": "relative viability", "setting": "SK-LU-1; first compound 0.2 µM", "value": 0.673}, {"measurement": "relative viability", "setting": "SK-LU-1; first compound 0.6325 µM", "value": 0.44}, {"measurement": "relative viability", "setting": "SK-LU-1; first compound 2 µM", "value": 0.297}, {"measurement": "relative viability", "setting": "SW 1573; first compound 0.02 µM", "value": 0.83}, {"measurement": "relative viability", "setting": "SW 1573; first compound 0.2 µM", "value": 0.689}, {"measurement": "relative viability", "setting": "SW 1573; first compound 0.6325 µM", "value": 0.833}, {"measurement": "relative viability", "setting": "SW 1573; first compound 2 µM", "value": 0.51}]}]}
